Results as given in patent US10927126B2, “Positive allosteric modulators of the muscarinic acetylcholine receptor M4” (Vanderbilt University, priority 2016, dated 2021).
Counter-ions that a name gives are not always drawn.

Molecular target: T1, Human M4 (Homo sapiens, UniProt P08173)
T1 sequence (P08173 1-479): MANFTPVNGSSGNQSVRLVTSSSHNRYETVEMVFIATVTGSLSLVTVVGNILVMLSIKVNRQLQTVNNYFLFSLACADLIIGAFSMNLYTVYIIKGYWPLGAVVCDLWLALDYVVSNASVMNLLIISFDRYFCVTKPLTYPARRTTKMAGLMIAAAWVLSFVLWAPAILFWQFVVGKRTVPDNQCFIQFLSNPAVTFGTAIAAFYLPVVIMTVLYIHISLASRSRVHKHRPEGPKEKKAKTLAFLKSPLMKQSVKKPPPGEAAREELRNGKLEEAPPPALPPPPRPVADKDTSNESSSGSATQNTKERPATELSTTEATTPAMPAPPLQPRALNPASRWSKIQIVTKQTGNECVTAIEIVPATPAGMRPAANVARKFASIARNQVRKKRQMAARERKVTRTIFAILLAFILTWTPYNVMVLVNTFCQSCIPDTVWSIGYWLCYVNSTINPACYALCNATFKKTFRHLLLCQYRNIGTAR
Experiment: mAChR M4 cell-based functional assay (calcium flux, potentiation of EC20 acetylcholine response)
Design: Emax: dose or concentration left out as unconfirmed

`COc1ccc(CNc2nccc3c2sc2nnc(OC)c(C)c23)cc1` [Compound 37, 3-Methoxy-N-(4-methoxybenzyl)-4-methylpyrido[4′,3′:4,5]thieno[2,3-c]pyridazin-8-amine] gave an EC50 of 0.562 µM and an Emax of 76.4%.

`Cc1nc2sc3c(NCc4ccc(C(C)(C)O)c(F)c4)nccc3c2c(C)c1Cl` [Compound 31, 2-(4-(((3-chloro-2,4-dimethylthieno[2,3-b:5,4-c′]dipyridin-8-yl)amino)methyl)-2-fluorophenyl)propan-2-ol] was tested, and the EC50 was 2.63 µM and the Emax was 76.6%.

With `Cc1nnc2sc3c(NCc4ccc(C(C)(C)O)cc4)nccc3c2c1C` [Compound 15, 2-[4-[[(3,4-dimethylpyrido[4′,3′:4,5]thieno[2,3-c]pyridazin-8-yl)amino]lmethyl]phenyl]propan-2-ol] the EC50 was 0.0343 µM and the Emax was 97.4%.

`Cc1nnc2sc3c(NC4CCC4)nccc3c2c1C` [Compound 7, N-cyclobutyl-3,4-dimethyl-pyrido[4′,3′:4,5]thieno[2,3-c]pyridazin-8-amine hydrochloride] gave an EC50 of 0.0598 µM and an Emax of 80.2%.

For `Cc1cc(C)c2c(n1)sc1c(NCc3ccc(C(C)(C)O)cc3)nccc12` [Compound 26, 2-(4-(((2,4-dimethylthieno[2,3-b:5,4-c′]dipyridin-8-yl)amino)methyl)phenyl)propan-2-ol], the EC50 was 0.327 µM and the Emax was 101%.

Work on `Cc1c(C(F)F)nnc2sc3c(N4CCCC4)nccc3c12` [Compound 40, 3-(Difluoromethyl)-4-methyl-8-(pyrrolidin-1-yl)pyrido[4′,3′:4,5]thieno[2,3-c]pyridazine] yielded an EC50 of 0.374 µM and an Emax of 55.9%.

For `Cc1nnc2sc3c(NC4CN(c5ccc(C#N)cn5)C4)nccc3c2c1C` [Compound 22, 6-[3-[(3,4-dimethylpyrido[4′,3′:4,5]thieno[2,3-c]pyridazin-8-yl)amino]azetidin-1-yl]pyridine-3-carbonitrile], the EC50 was 0.0169 µM and the Emax was 117%.

Compound `COc1ccc(CNc2nccc3c2sc2nnc(C)c(C)c23)cc1F` [Compound 14, N-[(3-fluoro-4-methoxy-phenyl)methyl]-3,4-dimethylpyrido[4′,3′:4,5]thieno[2,3-c]pyridazin-8-amine hydrochloride] has an EC50 of 0.0143 µM and an Emax of 91.3%.

`Cc1nc2sc3c(N4CCCC4)nccc3c2c(C)c1Cl` [Compound 30, 3-chloro-2,4-dimethyl-8-(pyrrolidin-1-yl)thieno[2,3-b:5,4-c′]dipyridine] was tested, and the EC50 was 0.714 µM and the Emax was 79.5%.

For `COc1nnc2sc3c(NC4CN(c5ncc(C(F)(F)F)cn5)C4)nccc3c2c1C` [Compound 38, 3-methoxy-4-methyl-N-(1-(5-(trifluoromethyl)pyrimidin-2-yl)azetidin-3-yl)pyrido[4′,3′:4,5]thieno[2,3-c]pyridazin-8-amine], the EC50 was 0.28 µM and the Emax was 80.6%.

`Cc1nnc2sc3c(NCc4ccc(OCC5CC5)c(F)c4)nccc3c2c1C` [Compound 18, N-[[4-(cyclopropylmethoxy)-3-fluoro-phenyl]methyl]-3,4-dimethyl-pyrido[4′,3′:4,5]thieno[2,3-c]pyridazin-8-amine hydrochloride] gave an EC50 of 0.679 µM and an Emax of 88.6%.

`COc1ccc(CNc2nccc3c2sc2nnc(C)c(C)c23)cc1` [Compound 9, N-[(4-methoxyphenyl)methyl]-3,4-dimethyl-pyrido[4′,3′:4,5]thieno[2,3-c]pyridazin-8-amine hydrochloride] gave an Emax of 76.8%.

Work on `Cc1nnc2sc3c(NCc4ccc(C(C)(C)O)cc4F)nccc3c2c1C` [Compound 21, 2-[4-[[(3,4-dimethylpyrido[4′,3′:4,5]thieno[2,3-c]pyridazin-8-yl)amino]methyl]-3-fluoro-phenyl]propan-2-ol] yielded an EC50 of 0.0789 µM and an Emax of 80%.

Work on `Cc1nnc2sc3c(NC4CN(c5ncc(F)cn5)C4)nccc3c2c1C` [Compound 12, N-[1-(5-fluoropyrimidin-2-yl)azetidin-3-yl]-3,4-dimethyl-pyrido[4′,3′:4,5]thieno[2,3-c]pyridazin-8-amine hydrochloride] yielded an EC50 of 0.0182 µM and an Emax of 77.4%.

For `Cc1c(Cl)nnc2sc3c(NC4CN(c5ncc(C(F)(F)F)cn5)C4)nccc3c12` [Compound 33, 3-chloro-4-methyl-N-(1-(5-(trifluoromethyl)pyrimidin-2-yl)azetidin-3-yl)pyrido[4′,3′:4,5]thieno[2,3-c]pyridazin-8-amine, 2,2,2-trifluoroacetic acid salt], the EC50 was 0.0539 µM and the Emax was 85.3%.

`Cc1cc(C)c2c(n1)sc1c(NC3CCC3)nccc12` [Compound 3, N-cyclobutyl-2,4-dimethylthieno[2,3-b:5,4-c′]dipyridin-8-amine dihydrochloride] gave an EC50 of 0.0849 µM and an Emax of 89.8%.

In the case of `Cc1c(C(F)F)nnc2sc3c(N4CC(c5ccncc5)C4)nccc3c12` [Compound 42, 3-(difluoromethyl)-4-methyl-8-(3-(pyridin-4-yl)azetidin-1-yl)pyrido[4′3′:4,5]thieno[2,3-c]pyridazine], the EC50 is reported as 0.442 µM and the Emax is reported as 56.1%.

`Cc1nnc2sc3c(NCc4ccc(C(C)(C)O)c(F)c4)nccc3c2c1C` [Compound 20, 2-[4-[[(3,4-dimethylpyrido[4′,3′:4,5]thieno[2,3-c]pyridazin-8-yl)amino]methyl]-2-fluoro-phenyl]propan-2-ol] showed an EC50 of 0.0396 µM and an Emax of 85.6%.

`Cc1nc2sc3c(NCc4ccc(C(C)(C)O)cc4)nccc3c2c(C)c1Cl` [Compound 29, 2-(4-(((3-chloro-2,4-dimethylthieno[2,3-b:5,4-c′]dipyridin-8-yl)amino)methyl)phenyl)propan-2-ol] was tested, and the EC50 was 1.54 µM and the Emax was 72.9%.

Compound `COc1ccc(CNc2nccc3c2sc2nnc(Cl)c(C)c23)cc1` [Compound 32, 3-chloro-N-(4-methoxybenzyl)-4-methylpyrido[4′,3′:4,5]thieno[2,3-c]pyridazin-8-amine] has an EC50 of 0.0581 µM and an Emax of 77.5%.

In the case of `COc1ccc(CNc2nccc3c2sc2nc(C)c(Cl)c(C)c23)cc1` [Compound 28, 3-Chloro-N-(4-methoxybenzyl)-2,4-dimethylthieno[2,3-b:5,4-c′]dipyridin-8-amine], the EC50 is reported as 4.97 µM and the Emax is reported as 60.8%.

With `Cc1nnc2sc3c(NC4CN(c5ncc(C(F)(F)F)cn5)C4)nccc3c2c1C` [Compound 10, 3,4-dimethyl-N-[1-[5-(trifluoromethyl)pyrimidin-2-yl]azetidin-3-yl]pyrido[4′,3′:4,5]thieno[2,3-c]pyridazin-8-amine hydrochloride] the EC50 was 0.0671 µM and the Emax was 74.4%.

`Cc1nnc2sc3c(NC4CCCC4)nccc3c2c1C` [Compound 5, N-Cyclopentyl-3,4-dimethyl-pyrido[4′,3′:4,5]thieno[2,3-c]pyridazin-8-amine Hydrochloride] showed an EC50 of 0.0123 µM and an Emax of 80.3%.

In the case of `Cc1cc(C)c2c(n1)sc1c(NCc3ccc(C(C)(C)O)cc3F)nccc12` [Compound 27, 2-(4-(((2,4-dimethylthieno[2,3-b:5,4-c′]dipyridin-8-yl)amino)methyl)-3-fluorophenyl)propan-2-ol], the EC50 is reported as 1.1 µM and the Emax is reported as 102%.

In the case of `Cc1nnc2sc3c(NCc4ccc(C(F)(F)F)c(F)c4)nccc3c2c1C` [Compound 17, N-[[3-fluoro-4-(trifluoromethyl)phenyl]methyl]-3,4-dimethyl-pyrido[4′,3′:4,5]thieno[2,3-c]pyridazin-8-amine hydrochloride], the EC50 is reported as 1.72 µM and the Emax is reported as 66.6%.

`Cc1nnc2sc3c(NC4CN(c5ccc(F)c(F)c5)C4)nccc3c2c1C` [Compound 19, N-[1-(3,4-difluorophenyl)azetidin-3-yl]-3,4-dimethyl-pyrido[4′,3′:4,5]thieno[2,3-c]pyridazin-8-amine hydrochloride] showed an EC50 of 0.164 µM and an Emax of 74.2%.

With `Cc1cc(C)c2c(n1)sc1c(NC3CN(c4ncc(C(F)(F)F)cn4)C3)nccc12` [Compound 24, 2,4-dimethyl-N-(1-(5-(trifluoromethyl)pyrimidin-2-yl)azetidin-3-yl)thieno[2,3-b:5,4-c′]dipyridin-8-amine] the EC50 was 0.15 µM and the Emax was 80.1%.

`COc1ccc(CNc2nccc3c2sc2nnc(Cl)c(C)c23)cc1F` [Compound 36, 3-chloro-N-(3-fluoro-4-methoxybenzyl)-4-methylpyrido[4′,3′:4,5]thieno[2,3-c]pyridazin-8-amine] gave an EC50 of 0.185 µM and an Emax of 97.6%.

In the case of `Cc1c(Cl)nnc2sc3c(N4CCCC4)nccc3c12` [Compound 35, 3-chloro-4-methyl-8-(pyrrolidin-1-yl)pyrido[4′,3′:4,5]thieno[2,3-c]pyridazine], the EC50 is reported as 0.0254 µM and the Emax is reported as 101%.

For `Cc1nnc2sc3c(NCc4ccc(OC(F)(F)F)cc4)nccc3c2c1C` [Compound 11, 3,4-dimethyl-N-[[4-(trifluoromethoxy)phenyl]methyl] pyrido[4′,3′:4,5]thieno[2,3-c]pyridazin-8-amine hydrochloride], the EC50 was 1.03 µM and the Emax was 72.8%.

`COc1nnc2sc3c(NC4CCC4)nccc3c2c1C` [Compound 39, N-cyclobutyl-3-methoxy-4-methylpyrido[4′,3′:4,5]thieno[2,3-c]pyridazin-8-amine] showed an EC50 of 0.0234 µM and an Emax of 93.2%.

`Cc1cc(C)c2c(n1)sc1c(N(C)C)nccc12` [Compound 4, N,N,2,4-tetramethylthieno[2,3-b:5,4-c′]dipyridin-8-amine] gave an EC50 of 0.202 µM and an Emax of 81.9%.

`Cc1nnc2sc3c(NCc4ccc(F)c(F)c4)nccc3c2c1C` [Compound 16, N-[(3,4-difluorophenyl)methyl]-3,4-dimethyl-pyrido[4′,3′:4,5]thieno[2,3-c]pyridazin-8-amine hydrochloride] was tested, and the EC50 was 0.194 µM and the Emax was 81.5%.
